# In US10689414B2 (Agios Pharmaceuticals, Inc., priority 2013, dated 2020):
# Test system: U87MG cells
# Test: Cellular assay, inhibition of 2-HG production in U87MG cells
# Type: cell-based
# Description: Cells (HT1080 or U87MG) are grown in T125 flasks in DMEM containing 10% FBS, 1× penicillin/streptomycin and 500 ug/mL G418 (present in U87MG cells only). They are harvested by trypsin and seeded into 96 well white bottom plates at a density of 5000 cell/well in 100 ul/well in DMEM with 10% FBS. […] Cells are incubated overnight at 37° C. in 5% CO2. The next day test compounds are made up at 2× the final concentration and 100 ul are added to each cell well. The final concentration of DMSO is 0.2% and the DMSO control wells are plated in row G. The plates are then placed in the incubator for 48 hours. […] The cell plate is placed back in the incubator for another 24 hours. At 72 hours post compound addition, 10 mL/plate of Promega Cell Titer Glo reagent is thawed and mixed. The cell plate is removed from the incubator and allowed to equilibrate to room temperature. Then 100 ul of Promega Cell Titer Glo reagent is added to each well of media. The cell plate is then placed on an orbital shaker for 10 minutes and then allowed to sit at room temperature for 20 minutes. The plate is then read for luminescence with an integration time of 500 ms.
"IC50 (Homo sapiens, U-87 MG, 48 h)",SMILES,"IC50 (inhibition of 2-HG production, U87MG cells, 48 hours)"
< 100 nM,"N#Cc1ccnc(N2C(=O)OC[C@H]2C(=O)N(c2cncc(F)c2)[C@H](C(=O)NC2CCC(F)(F)CC2)c2ccccc2Cl)c1 [Compound 132, (S)—N—((S)-1-(2-Chlorophenyl)-2-((4,4-difluorocyclohexyl)amino)-2-oxoethyl)-3-(4-cyanopyri-din-2-yl)-N-(5-fluoropyridin-3-yl)-2-oxooxazolidine-4-carboxamide]",–
< 100 nM,"N#Cc1ccnc(N2C(=O)CC[C@H]2C(=O)N(c2cccc(OC(F)F)c2)[C@H](C(=O)NC2CC(F)(F)C2)c2ccccc2Cl)c1 [Compound 181, (S)—N—((S)-1-(2-Chlorophenyl)-2-((3,3-difluorocyclobutyl)amino)-2-oxoethyl)-1-(4-cyanopyridin-2-yl)-N-(3-(difluoromethoxy)phenyl)-5-oxopyrrolidine-2-carboxamide]",–
< 100 nM,"N#Cc1cccc(N(C(=O)[C@@H]2C[C@@H](O)C(=O)N2c2cc(C#N)ccn2)C(C(=O)NC2CC(F)(F)C2)c2ccccc2Cl)c1 (stereo partly drawn) [Compound 170, (2S,4R)—N-(1-(2-chlorophenyl)-2-((3,3-difluorocyclobutyl)amino)-2-oxoethyl)-N-(3-cyano-phenyl)-1-(4-cyanopyridin-2-yl)-4-hydroxy-5-oxopyrrolidine-2-carboxamide]",–
< 100 nM,"CCOC(=O)CN1C[C@@H](C(=O)N(c2cccc(F)c2)C(C(=O)NC2CC(F)(F)C2)c2ccccc2Cl)N(c2nccc(C#N)n2)C1=O (stereo partly drawn) [Compound 111, Ethyl 2-((4S)-4-((1-(2-chlorophenyl)-2-((3,3-difluorocyclobutyl)amino)-2-oxoethyl)(3-fluorophenyl)carbamoyl)-3-(4-cyanopyrimidin-2-yl)-2-oxoimidazolidin-1-yl)acetate]",–
< 100 nM,"N#Cc1ccnc(N2C(=O)CC[C@H]2C(=O)N(c2cccc(OC(F)F)c2)[C@H](C(=O)NC2CC(F)(F)C2)c2ccccc2Cl)n1 [Compound 194, (S)—N—((S)-1-(2-Chlorophenyl)-2-((3,3-difluorocyclobutyl)amino)-2-oxoethyl)-1-(4-cyanopyrimidin-2-yl)-N-(3-(difluoromethoxy)phenyl)-5-oxopyrrolidine-2-carboxamide]",–
–,"N#Cc1ccnc(N2C(=O)CC[C@H]2C(=O)N(c2cccc(C3(O)CC3)c2)[C@H](C(=O)NC2CC(F)(F)C2)c2ccccc2Cl)c1 [Compound 140, (S)—N—((S)-1-(2-Xhlorophenyl)-2-(3,3-difluorocyclobutylamino)-2-oxoethyl)-1-(4-cyanopyridin-2-yl)-N-(3-(1-hydroxycyclopropyl)phenyl)-5-oxopyrrolidine-2-carboxamide]",< 100 nM
< 100 nM,O=C(NC1CC(F)(F)C1)[C@H](c1ccccc1Cl)N(C(=O)[C@@H]1CCC(=O)N1c1cnccn1)c1cccc(F)c1 [Compound 18],–
< 100 nM,"N#Cc1ccnc(N2C(=O)[C@@H](O)C[C@H]2C(=O)N(c2cccc(F)c2)[C@H](C(=O)NC2CC(F)(F)C2)c2ccccc2Cl)c1 [Compound 118, (2S,4S)—N—((S)-1-(2-Chlorophenyl)-2-(3,3-difluorocyclobutylamino)-2-oxoethyl)-1-(4-cyano-pyridin-2-yl)-N-(3-fluorophenyl)-4-hydroxy-5-oxopyrrolidine-2-carboxamide]",–
< 100 nM,N#Cc1ccnc(N2C(=O)CC[C@H]2C(=O)N(c2cccc(F)c2)[C@H](C(=O)NC2CCC(F)(F)CC2)c2ccccc2Cl)c1 [Compound 53],–
< 100 nM,"N#Cc1ccnc(N2C(=O)CC[C@H]2C(=O)N(c2cc(F)cc(F)c2)[C@H](C(=O)NC2CCC(F)(F)CC2)c2ccccc2Cl)n1 [Compound 87, (S)—N—((S)-1-(2-Chlorophenyl)-2-((4,4-difluorocyclohexyl)amino)-2-oxoethyl)-1-(4-cyanopyrimidin-2-yl)-N-(3,5-difluorophenyl)-5-oxopyrrolidine-2-carboxamide]",–
100 to 500 nM,"O=C(NC1CC(F)(F)C1)[C@H](c1ccccc1Cl)N(C(=O)[C@@H]1COCC(=O)N1c1ncccn1)c1cccc(F)c1 [Compound 30, (S)—N—((S)-1-(2-chlorophenyl)-2-((3,3-difluorocyclobutyl)amino)-2-oxoethyl)-N-(3-fluorophenyl)-5-oxo-4-(pyrimidin-2-yl)morpholine-3-carboxamide]",–
100 to 500 nM,"CS(=O)(=O)c1cccc(N(C(=O)[C@@H]2CCC(=O)N2c2nccc(C#N)n2)C(C(=O)NC2CC(F)(F)C2)c2ccccc2Cl)c1 (mixture of isomers) [Compound 102, (2S)—N-(1-(2-Chlorophenyl)-2-((3,3-difluorocyclobutyl)amino)-2-oxoethyl)-1-(4-cyanopyrimidin-2-yl)-N-(3-(methylsulfonyl)phenyl)-5-oxopyrrolidine-2-carboxamide]",–
< 100 nM,"N#Cc1ccnc(N2C(=O)CC[C@H]2C(=O)N(c2cc(F)cc(F)c2)[C@H](C(=O)NC2CC(F)(F)C2)c2ccccc2Cl)c1F [Compound 88, (S)—N—((S)-1-(2-Chlorophenyl)-2-((3,3-difluorocyclobutyl)amino)-2-oxoethyl)-1-(4-cyano-3-fluoropyridin-2-yl)-N-(3,5-difluorophenyl)-5-oxopyrrolidine-2-carboxamide]",–
< 100 nM,[2H]c1c([2H])c([2H])c([C@@H](C(=O)NC2CC(F)(F)C2)N(C(=O)[C@@H]2CCC(=O)N2c2cc(C#N)ccn2)c2cc(F)cc(F)c2)c(Cl)c1[2H] [Compound 163],–
< 100 nM,"N#Cc1ccnc(N2C(=O)NC[C@H]2C(=O)N(c2cccc(F)c2)[C@H](C(=O)NC2CC(F)(F)C2)c2ccccc2Cl)c1 [Compound 80, (S)—N—((S)-1-(2-chlorophenyl)-2-(3,3-difluorocyclobutylamino)-2-oxoethyl)-3-(4-cyanopyridin-2-yl)-N-(3-fluorophenyl)-2-oxoimidazolidine-4-carboxamide]",–
100 to 500 nM,"N#Cc1ccnc(N2C(=O)[C@H](O)C[C@H]2C(=O)N(c2cccc(F)c2)[C@H](C(=O)NC2CC(F)(F)C2)c2ccccc2Cl)n1 [Compound 120, (2S,4R)—N—((S)-1-(2-Chlorophenyl)-2-((3,3-difluorocyclobutyl)amino)-2-oxoethyl)-1-(4-cyanopyrimidin-2-yl)-N-(3-fluorophenyl)-4-hydroxy-5-oxopyrrolidine-2-carboxamide]",–
< 100 nM,"N#Cc1ccnc(N2C(=O)OCC[C@H]2C(=O)N(c2cc(F)cc(F)c2)[C@H](C(=O)NC2CC(F)(F)C2)c2ccccc2Cl)n1 [Compound 154, (S)—N—((S)-1-(2-Chlorophenyl)-2-((3,3-difluorocyclobutyl)amino)-2-oxoethyl)-3-(4-cyanopyrimidin-2-yl)-N-(3,5-difluorophenyl)-2-oxo-1,3-oxazinane-4-carboxamide]",–
< 100 nM,"N#Cc1ccnc(N2C(=O)CC[C@H]2C(=O)N(c2cccc3[nH]ncc23)C(C(=O)NC2CC(F)(F)C2)c2ccccc2Cl)c1 (stereo partly drawn) [Compound 152, (2S)—N-(1-(2-Chlorophenyl)-2-((3,3-difluorocyclobutyl)amino)-2-oxoethyl)-1-(4-cyanopyridin-2-yl)-N-(1H-indazol-4-yl)-5-oxopyrrolidine-2-carboxamide]",–
< 100 nM,"CC(C)(O)c1cc(F)cc(N(C(=O)[C@@H]2CCOC(=O)N2c2cc(C#N)ccn2)[C@H](C(=O)NC2CC(F)(F)C2)c2ccccc2Cl)c1 [Compound 146, (S)—N—((S)-1-(2-Chlorophenyl)-2-(3,3-difluorocyclobutylamino)-2-oxoethyl)-3-(4-cyanopyridin-2-yl)-N-(3-fluoro-5-(2-hydroxypropan-2-yl)phenyl)-2-oxo-1,3-oxazinane-4-carboxamide]",–
